The text below walks through data of US11987588B2, “Modulators of the beta-3 adrenergic receptor useful for the treatment or prevention of heart failure and disorders related thereto” (Arena Pharmaceuticals, Inc., priority 2017, dated 2024).

Molecules are shown by their SMILES.

Sequence of Beta-3 Adrenergic Receptor (P13945 whole entry, species assumed): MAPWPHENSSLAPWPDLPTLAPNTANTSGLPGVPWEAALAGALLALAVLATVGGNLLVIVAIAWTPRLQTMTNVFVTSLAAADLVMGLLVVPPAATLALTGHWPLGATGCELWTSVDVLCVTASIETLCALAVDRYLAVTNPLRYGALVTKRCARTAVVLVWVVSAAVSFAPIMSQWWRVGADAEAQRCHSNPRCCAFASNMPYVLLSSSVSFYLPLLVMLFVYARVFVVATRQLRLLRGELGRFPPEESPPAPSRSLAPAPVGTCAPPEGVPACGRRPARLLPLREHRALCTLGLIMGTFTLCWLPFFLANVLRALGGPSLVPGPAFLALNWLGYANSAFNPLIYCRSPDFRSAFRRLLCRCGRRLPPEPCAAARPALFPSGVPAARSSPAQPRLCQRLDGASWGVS

In this assay the target is Beta-3 Adrenergic Receptor (Homo sapiens (Human), UniProt P13945). The assay is described as follows: Homogeneous Time-Resolved Fluorescence (HTRF) cAMP antagonist assay, IC50 determination. The format is cell-based. The note with it: CHO-K1 cells stably expressing recombinant receptor, isoproterenol at EC90. The essentials:
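CHO-K1 cells stably expressing receptor, 1500 cells/well, preincubated briefly with 10-point 5-fold compound series (top final typically 10 or 100 μM) in PBS with 1 mM IBMX, then challenged with isoproterenol at EC90 for 1 h at room temperature. cAMP read by HTRF against on-plate standard curve; IC50 from dose-response.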
A general note: In TR-FRET formats the signal depends on donor and acceptor labels being close together.
On to `CNS(=O)(=O)c1cccc(OC[C@@H](O)CNC2COC3(CCN(S(=O)(=O)c4cc(C)cc(-c5ccc(CN)cc5)c4)CC3)C2)c1` (stereo partly drawn) [Compound 373, 3-((2S)-3-(8-(4′-(aminomethyl)-5-methylbiphenyl-3-ylsulfonyl)-1-oxa-8-azaspiro[4.5]decan-3-ylamino)-2-hydroxypropoxy)-N-methylbenzenesulfonamide], for which the IC50 stood at 24.4 nM. In the case of `CNS(=O)(=O)c1cccc(OC[C@@H](O)CN[C@@H]2COC3(CCN(S(=O)(=O)c4cncc(-c5ccc(CN)cc5)c4)CC3)C2)c1` [Compound 374, 3-((S)-3-((S)-8-(5-(4-(aminomethyl)phenyl)pyridin-3-ylsulfonyl)-1-oxa-8-azaspiro[4.5]decan-3-ylamino)-2-hydroxypropoxy)-N-methylbenzenesulfonamide] it was 15.7 nM.

For the compound `CNS(=O)(=O)c1cccc(OC[C@@H](O)CN[C@H]2COC3(CCN(S(=O)(=O)c4cncc(-c5ccc(CN)cc5)c4)CC3)C2)c1` [Compound 375], the IC50 is 25.4 nM. Consider `CNS(=O)(=O)c1cccc(OC[C@@H](O)CNC2COC3(CCN(S(=O)(=O)c4ccc(C)c(-c5ccc(CN)cc5)c4)CC3)C2)c1` (stereo partly drawn) [Compound 376, 3-((2S)-3-(8-(4′-(aminomethyl)-6-methylbiphenyl-3-ylsulfonyl)-1-oxa-8-azaspiro[4.5]decan-3-ylamino)-2-hydroxypropoxy)-N-methylbenzenesulfonamide], for which the IC50 worked out at 499 nM. For the compound `CNS(=O)(=O)c1cccc(OC[C@@H](O)CNC2COC3(CCN(S(=O)(=O)c4cc(-c5ccc(CN)cc5)ccc4Cl)CC3)C2)c1` (stereo partly drawn) [Compound 377, 3-((2S)-3-(8-(4′-(aminomethyl)-4-chlorobiphenyl-3-ylsulfonyl)-1-oxa-8-azaspiro[4.5]decan-3-ylamino)-2-hydroxypropoxy)-N-methylbenzenesulfonamide], the IC50 is 18.9 nM.

With `CNS(=O)(=O)c1cccc(OC[C@@H](O)CNC2COC3(CCN(S(=O)(=O)CCc4ccncc4)CC3)C2)c1` (stereo partly drawn) [Compound 378, 3-((2S)-2-hydroxy-3-(8-(2-(pyridin-4-yl)ethylsulfonyl)-1-oxa-8-azaspiro[4.5]decan-3-ylamino)propoxy)-N-methylbenzenesulfonamide], the IC50 came to 131 nM.

As for `CNS(=O)(=O)c1cccc(OC[C@@H](O)CNC2COC3(CCN(S(=O)(=O)c4cccc(-c5ccc(/C(N)=N/O)cc5)c4)CC3)C2)c1` (stereo partly drawn) [Compound 379, (Z)-N′-hydroxy-3′-(3-((S)-2-hydroxy-3-(3-(N-methylsulfamoyl)phenoxy)propylamino)-1-oxa-8-azaspiro[4.5]decan-8-ylsulfonyl)biphenyl-4-carboximidamide], the IC50 was determined as 11.1 nM. `CNS(=O)(=O)c1cccc(OC[C@@H](O)CNC2COC3(CCN(S(=O)(=O)c4cccc(-c5ccc(-c6noc(C)n6)cc5)c4)CC3)C2)c1` (stereo partly drawn) [Compound 380, 3-((2S)-2-hydroxy-3-(8-(4′-(5-methyl-1,2,4-oxadiazol-3-yl)biphenyl-3-ylsulfonyl)-1-oxa-8-azaspiro[4.5]decan-3-ylamino)propoxy)-N-methylbenzenesulfonamide]: the IC50 is 102 nM. The value for `CNS(=O)(=O)c1cccc(OC[C@@H](O)CNC2COC3(CCN(S(=O)(=O)c4ccccc4-c4ccc(CN)cc4)CC3)C2)c1` (stereo partly drawn) [Compound 381, 3-((2S)-3-(8-(4′-(aminomethyl)biphenyl-2-ylsulfonyl)-1-oxa-8-azaspiro[4.5]decan-3-ylamino)-2-hydroxypropoxy)-N-methylbenzenesulfonamide] was 357 nM; that for `CNS(=O)(=O)c1cccc(OC[C@@H](O)CNC2COC3(CCN(S(=O)(=O)c4ccc(-c5ccc(CN)cc5)cc4)CC3)C2)c1` (stereo partly drawn) [Compound 382, 3-((2S)-3-(8-(4′-(aminomethyl)biphenyl-4-ylsulfonyl)-1-oxa-8-azaspiro[4.5]decan-3-ylamino)-2-hydroxypropoxy)-N-methylbenzenesulfonamide] was 21 nM. Regarding `CNS(=O)(=O)c1cccc(OC[C@@H](O)CNC2COC3(CCN(S(=O)(=O)c4cccc(-c5ccc(C(=N)N)cc5)c4)CC3)C2)c1` (stereo partly drawn) [Compound 383, 3′-(3-((S)-2-hydroxy-3-(3-(N-methylsulfamoyl)phenoxy)propylamino)-1-oxa-8-azaspiro[4.5]decan-8-ylsulfonyl)biphenyl-4-carboximidamide], the IC50 was 21.8 nM.

In the case of `CNS(=O)(=O)c1cccc(OC[C@@H](O)CN[C@@H]2COC3(CCN(S(=O)(=O)c4cc(-c5ccc(CN)cc5)ccc4OC)CC3)C2)c1` [Compound 384, 3-((S)-3-((S)-8-(4′-(aminomethyl)-4-methoxybiphenyl-3-ylsulfonyl)-1-oxa-8-azaspiro[4.5]decan-3-ylamino)-2-hydroxypropoxy)-N-methylbenzenesulfonamide], the IC50 came out at 11 nM.

For the compound `CNS(=O)(=O)c1cccc(OC[C@@H](O)CN[C@H]2COC3(CCN(S(=O)(=O)c4cc(-c5ccc(CN)cc5)ccc4OC)CC3)C2)c1` [Compound 385, 3-((S)-3-((R)-8-(4′-(aminomethyl)-4-methoxybiphenyl-3-ylsulfonyl)-1-oxa-8-azaspiro[4.5]decan-3-ylamino)-2-hydroxypropoxy)-N-methylbenzenesulfonamide], the IC50 was 11 nM. In the case of `CNS(=O)(=O)c1cccc(OC[C@@H](O)CNC2COC3(CCN(S(=O)(=O)c4cncc(OC)c4)CC3)C2)c1` (stereo partly drawn) [Compound 386, 3-((2S)-2-hydroxy-3-(8-(5-methoxypyridin-3-ylsulfonyl)-1-oxa-8-azaspiro[4.5]decan-3-ylamino)propoxy)-N-methylbenzenesulfonamide] it was 57.9 nM.

Regarding `CNS(=O)(=O)c1cccc(OC[C@@H](O)CNC2COC3(CCN(S(=O)(=O)c4cccc(-c5ccc(CN)nc5)c4)CC3)C2)c1` (stereo partly drawn) [Compound 387, 3-((2S)-3-(8-(3-(6-(aminomethyl)pyridin-3-yl)phenylsulfonyl)-1-oxa-8-azaspiro[4.5]decan-3-ylamino)-2-hydroxypropoxy)-N-methylbenzenesulfonamide], the IC50 is 30.8 nM. Consider `CNS(=O)(=O)c1cccc(OC[C@@H](O)CNC2COC3(CCN(S(=O)(=O)c4cncc(-c5ccc(CN)nc5)c4)CC3)C2)c1` (stereo partly drawn) [Compound 388, 3-((2S)-3-(8-(6′-(aminomethyl)-3,3′-bipyridin-5-ylsulfonyl)-1-oxa-8-azaspiro[4.5]decan-3-ylamino)-2-hydroxypropoxy)-N-methylbenzenesulfonamide], for which the IC50 turned out to be 79.4 nM.

Consider `CNS(=O)(=O)c1cccc(OC[C@@H](O)CNC2COC3(CCN(S(=O)(=O)c4cccc(CN)c4)CC3)C2)c1` (stereo partly drawn) [Compound 389, 3-((2S)-3-(8-(3-(aminomethyl)phenylsulfonyl)-1-oxa-8-azaspiro[4.5]decan-3-ylamino)-2-hydroxypropoxy)-N-methylbenzenesulfonamide], for which the IC50 was 475 nM. Regarding `CNS(=O)(=O)c1cccc(OC[C@@H](O)CNC2COC3(CCN(S(=O)(=O)c4cccc(CO)c4)CC3)C2)c1` (stereo partly drawn) [Compound 390, 3-((2S)-2-hydroxy-3-(8-(3-(hydroxymethyl)phenylsulfonyl)-1-oxa-8-azaspiro[4.5]decan-3-ylamino)propoxy)-N-methylbenzenesulfonamide], the IC50 is 153 nM. For the compound `CNS(=O)(=O)c1cccc(OC[C@@H](O)CNC2COC3(CCN(S(=O)(=O)c4ccc(CN)cc4)CC3)C2)c1` (stereo partly drawn) [Compound 391, 3-((2S)-3-(8-(4-(aminomethyl)phenylsulfonyl)-1-oxa-8-azaspiro[4.5]decan-3-ylamino)-2-hydroxypropoxy)-N-methylbenzenesulfonamide], the IC50 is 446 nM. Regarding `CNS(=O)(=O)c1cccc(OC[C@@H](O)CNC2COC3(CCN(S(=O)(=O)c4ccc(CO)cc4)CC3)C2)c1` (stereo partly drawn) [Compound 392, 3-((2S)-2-hydroxy-3-(8-(4-(hydroxymethyl)phenylsulfonyl)-1-oxa-8-azaspiro[4.5]decan-3-ylamino)propoxy)-N-methylbenzenesulfonamide], the IC50 turned out to be 168 nM. As to `O=S(=O)(NCCF)c1cccc(OC[C@@H](O)CN[C@H]2COC3(CCN(S(=O)(=O)c4ccc5ncccc5c4)CC3)C2)c1` [Compound 393, N-(2-fluoroethyl)-3-((S)-2-hydroxy-3-((R)-8-(quinolin-6-ylsulfonyl)-1-oxa-8-azaspiro[4.5]decan-3-ylamino)propoxy)benzenesulfonamide], the IC50 turned out to be 141 nM. Turning to `O=S(=O)(NCCF)c1cccc(OC[C@@H](O)CN[C@H]2COC3(CCN(S(=O)(=O)c4cnc5ccccc5c4)CC3)C2)c1` [Compound 394, N-(2-fluoroethyl)-3-((S)-2-hydroxy-3-((R)-8-(quinolin-3-ylsulfonyl)-1-oxa-8-azaspiro[4.5]decan-3-ylamino)propoxy)benzenesulfonamide], the IC50 amounted to 46.9 nM. With `CNS(=O)(=O)c1cccc(OC[C@@H](O)CNC2COC3(CCN(S(=O)(=O)c4ccc(O)nc4)CC3)C2)c1` (stereo partly drawn) [Compound 395, 3-((2S)-2-hydroxy-3-(8-(6-hydroxypyridin-3-ylsulfonyl)-1-oxa-8-azaspiro[4.5]decan-3-ylamino)propoxy)-N-methylbenzenesulfonamide], the IC50 was found to be 206 nM.

As for `CNS(=O)(=O)c1cccc(OC[C@@H](O)CNC2COC3(CCN(S(=O)(=O)c4ccc(OC)nc4)CC3)C2)c1` (stereo partly drawn) [Compound 396, 3-((2S)-2-hydroxy-3-(8-(6-methoxypyridin-3-ylsulfonyl)-1-oxa-8-azaspiro[4.5]decan-3-ylamino)propoxy)-N-methylbenzenesulfonamide], the concentration for half-maximal inhibition (IC50) came to 30.3 nM.

In the case of `CNS(=O)(=O)c1cccc(OC[C@@H](O)CNC2COC3(CCN(S(=O)(=O)c4cc(OC)cnc4C)CC3)C2)c1` (stereo partly drawn) [Compound 397, 3-((2S)-2-hydroxy-3-(8-(5-methoxy-2-methylpyridin-3-ylsulfonyl)-1-oxa-8-azaspiro[4.5]decan-3-ylamino)propoxy)-N-methylbenzenesulfonamide], the IC50 stood at 115 nM. With `CNS(=O)(=O)c1cccc(OC[C@@H](O)CNC2COC3(CCN(S(=O)(=O)c4ccccc4OC)CC3)C2)c1` (stereo partly drawn) [Compound 398, 3-((2S)-2-hydroxy-3-(8-(2-methoxyphenylsulfonyl)-1-oxa-8-azaspiro[4.5]decan-3-ylamino)propoxy)-N-methylbenzenesulfonamide], the IC50 was 51.3 nM.

What is called IC50 is the concentration that inhibits the measured activity by half.
